Reference: PubChem BioAssay (NCI)
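Test compounds were applied to cells in 96-well plates for 48 hours at 5 doses. TGI marks complete inhibition of growth.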

How the values were obtained:
Assay in all cases: inhibition of tumour cell growth, NCI panel, 48 h
786-0 renal = system: 786-0 renal
ACHN renal = system: ACHN renal
HT29 colon = system: HT29 colon
M14 melanoma = system: M14 melanoma
MALME-3M melanoma = system: MALME-3M melanoma
MCF7 breast = system: MCF7 breast
OVCAR-3 ovarian = system: OVCAR-3 ovarian
TK-10 renal = system: TK-10 renal
U251 CNS = system: U251 CNS
UACC-62 melanoma = system: UACC-62 melanoma

Structure (SMILES)	TGI (786-0 renal) [µM]	TGI (ACHN renal) [µM]	TGI (HT29 colon) [µM]	TGI (M14 melanoma) [µM]	TGI (MALME-3M melanoma) [µM]	TGI (MCF7 breast) [µM]	TGI (OVCAR-3 ovarian) [µM]	TGI (TK-10 renal) [µM]	TGI (U251 CNS) [µM]	TGI (UACC-62 melanoma) [µM]
O=C(O)c1ccccc1/C=N\NC1=NCCCCN1	> 100	> 100	> 100	> 100	> 100	> 100	> 100	> 100	> 100	> 100
N#CCc1nc(C#N)c(N)o1	> 100	> 100	> 100	> 100	> 100	> 100	> 100	> 100	> 100	> 100
CC(C)(C)OC(=O)N1C(OP(=O)(Oc2ccccc2)Oc2ccccc2)=COc2cccnc21	> 100	> 100	> 100	> 100	98.2	> 100	> 100	> 100	> 100	> 100
Cc1[nH]c(-c2ccccc2)c(-c2ccc(Cl)cc2)c1C(=O)ONC(=O)c1ccccc1	4.46	3.48	22.9	19.9	23.5	28	14.9	9.76	3.6	23.3
CCCCN(c1ccccc1)c1ncnc2c1cnn2C	> 100	> 100	> 100	> 100	77.7	> 100	> 100	> 100	> 100	> 100
CCCCCCCCCCCCCCCCNc1nc(=O)n(C2CC(O)C(CO)O2)cc1F (stereo not given)	21.7	11.9	21.5	27.2	22.8	19.9	39.3	27.5	33.1	22.8
Cc1ccc(S(=O)(=O)N2CCN(CCN(C)CCN3CCN(S(=O)(=O)c4ccc(C)cc4)CC3)CC2)cc1	39.3	32.7	29.9	31.2	33.7	32.8	31.1	30.2	31.6	32.8
COc1ccc2c(c1)CCc1c-2n(CCN(C)C)c2ccc(OC)cc12	> 100	> 100	> 100	> 100	53.5	69.9	> 100	80.3	78.7	> 100
CC[N+](C)(CC)CCN1C(=O)c2ccccc2S1(=O)=O	> 100	> 100	> 100	> 100	> 100	> 100	> 100	> 100	> 100	> 100
COc1ccc(CNc2nc(NCc3ccc(OC)cc3)nc(N3CCOCC3)n2)cc1	> 100	> 100	9.63	> 100	5.84	> 100	6.81	28.8	> 100	> 100
NC(=O)CC(Nc1ncc2c(n1)-c1ccccc1OC2)C(=O)O (stereo not given)	> 100	> 100	> 100	> 100	> 100	> 100	> 100	> 100	> 100	> 100
N#Cc1c2c(c(N3CCOCC3)n3c1nc1ccccc13)CCCC2	41.3	31.3	38.6	44.4	34	87.1	36.5	49.3	28.3	55.5
O=C(c1ccco1)N(C(=S)OCc1ccccn1)c1ccccc1	> 100	> 100	> 100	> 100	79.2	> 100	> 100	> 100	> 100	> 100
O=C1C=CC(=O)c2ncccc21	7.61	7.98	16.7	13.1	9.78	25.8	4.13	17.4	17	9.3
O=C(/C=C/c1ccc([N+](=O)[O-])cc1)c1nc2ccccc2[nH]1	> 100	> 100	> 100	> 100	> 100	> 100	> 78.1	> 37.8	> 100	63
CCCCCCCCCCCCCCCCCCOCC(O)COP(=O)(O)OCC1OC(n2cc(F)c(=O)[nH]c2=O)CC1O (stereo not given)	17.8	> 41.6	23.6	15.5	33.9	48.3	46.7	24.6	22.4	9.7
O=C(NNC(=S)Nc1ccccc1)c1csc(NC(=S)NC2CCCCC2)n1	> 100	> 100	> 100	> 100	> 100	> 100	> 100	> 100	> 100	> 100
OC1OC(c2ccco2)C(F)(F)C(F)(F)C1(F)F (stereo not given)	> 100	> 100	> 100	> 100	> 100	> 100	> 100	> 100	> 100	> 100
O=C1OS2(OCc3cccc4cccc2c34)c2ccccc21 (stereo not given)	> 100	> 100	> 100	> 100	> 100	> 100	> 100	> 100	> 100	> 100
CCOC(=O)C1=C(C)NC(=S)NC1c1cccc(O)c1 (stereo not given)	> 100	> 100	> 100	60.5	> 100	> 100	> 100	> 100	> 96.5	> 96.6
Cc1cc(S(=O)(=O)Nc2nnc3cc(C(F)(F)F)cc(C)n23)c(S)cc1Cl	> 100	> 100	> 100	> 100	> 100	> 31.6	> 100	> 100	> 81.5	> 100
